Reference: patent publication US20240180868A1, “PHARMACEUTICAL COMPOSITION FOR PREVENTION OR TREATMENT OF VIRUS INFECTION, THE PHARMACEUTICAL COMPOSITION COMPRISING ROTTLERIN AS ACTIVE INGREDIENT” (QVET, priority 2021, published 2024)

Columns and labels:
[1] = tested on: PRRSV FL12; assay: PRRSV animal model, 4-week-old pigs, intranasal spray; assay type: in vivo; conditions: 1 mg intranasal
Method: Validity assessment for target animals were performed using 4-week-old pigs. A total of 15 pigs were used, and randomly distributed into a positive PRRSV FL12 administration group, a rottlerin liposome 100 μg administration group (R-L 100 μg), a rottlerin liposome 1 mg administration group (R-L 1 mg), and a rottlerin raw material 1 mg administration group (R 1 mg), wherein four animals were used for each group (three animals were used for the rottlerin liposome 100 μg administration group).
The pigs of each group were inoculated with 10^5 TCID50/ml FL12, and after the inoculation, 2 ml of each therapeutic agent was intranasally administered by spray.
Sera were separated from the pigs on days 1, 3, 7, 14, and 19, and the pigs were euthanized and necropsied on day 19 of inoculation. The lung tissue of each pig was collected and lesions were evaluated, thereby calculating lung lesion scores. […]
Microscopic lung lesions were measured from 0 to 4 according to the degree of interstitial pneumonia as follows: (0, no lesions; 1, mild lesions or less than half being lesions; 2, common lesions or half being lesions; 3, moderately spread lesions or more than half being lesions; 4, severe lesions or full lesions). […]

[2] = tested on: PRRSV; assay: PRRSV protein expression, fluorescent immunostaining of nucleocapsids; assay type: cell-based; conditions: 10 μM; 48 hours after inoculation
Method: To evaluate the inhibitory effect of rottlerin or rottlerin liposomes against PRRSV protein expression, the cells were treated with 5 μM rottlerin liposomes and 10 μM rottlerin, and 48 hours after inoculation, fluorescent immunostaining was performed using primary antibody for PRRSV nucleocapsids and Alexa 488 secondary antibody.

CC(=O)c1c(O)c(C)c(O)c(Cc2c(O)c3c(c(C(=O)/C=C/c4ccccc4)c2O)OC(C)(C)C=C3)c1O [rottlerin]
clinical symptom score ([1]; scored daily 0 to 6): significant decrease in clinical symptom score on days 8, 16, 17, and 18 | area under curve (AUC) of viremia, qRT-PCR ([1]; vs FL12 group, p≤0.05): significantly lower | PRRSV virus proteins detected by fluorescent immunostaining [2]: virus proteins were not detected
